From patent publication US20030180345A1, “Compositions and methods for inhibiting islet dysfunction and autoimmune disorders” (priority 2000, published 2003) come the findings set out here.

For one assay, the system named is fetal islet β cells. Kind of assay: SNP-induced apoptosis in cultured fetal islets (TUNEL, confocal microscopy). The format is cell-based, Wistar rats. The following applies: SNP 100 μmol/l. The procedure: Animals and Diets. Adult virgin female Wistar rats were caged overnight with males and copulation was verified the next morning. Animals were maintained at 25° C. with a 10 h-14 h dark-light cycle. Pregnant rats were divided into two groups and fed one of the following isocaloric diets: either a control diet (C) containing 20% protein or a low protein diet (LP) containing 8% protein. The composition of the diet was as described previously by Snoeck et al. 1990 (Biol. Neonate 57, 107-118). The diets were purchased from Hope Farms (Woerden, Holland). Animals in both the groups had free access to water at all times. At 21.5 days of gestation, females were sacrificed by decapitation and fetuses removed.
Islet culture and treatment. Fetal islets were isolated as described by Mourmeaux et al. 1985 (Molecular and Cellular Endocrinology 39:237-246). Islets were cultured in 35 mm Petri-dishes (Falcon plastics, Los Angeles, Calif.) in RPMI 1640 medium (Gibco, Grand Island, N.Y., USA) with 10% Fetal Bovine Serum and antibiotics (penicillin 200 U/ml, streptomycin 0.2 mg/ml). Petri dishes were incubated at 37° C. with 5% CO2 in air. The culture medium was changed daily after the second day. On the 5th day of culture, islets were rinsed twice with serum free DME/F12 medium (1:1, v/v, Gibco, Paisley, Scotland) and subsequently incubated for 42 hours in this medium. […]
TUNEL method for evaluating apoptosis. Apoptosis was evaluated by the TUNEL method described herein, and visualized with confocal microscopy. Cultured islets were fixed in methanol and stored at −20° C. until analysis. The tissue was then washed with phosphate buffered saline (PBS) for 3 min, and a terminal deoxynucleotidyl transferase (TdT) reaction buffer (50 μl) was added. The 50 μl of TdT solution was prepared using 10 μl of 5× concentrated buffer solution (1 mol/l potassium cacodylate; 125 mmol/l Tris-HCl, pH 6.6; 1.26 mg bovine serum albumin). Cobalt chloride (5 μl of 25 mmol/l), 0.5 μl (12.5 units) of TdT (both from Boehringer Mannheim, Germany), and 0.25 nmoles of BODIPY-FL-X-14-dUTP (Molecular Probes, Eugene, Oreg. USA) were added, along with distilled water, up to 50 μl. Islets were incubated in Petri dishes with the TdT reaction buffer for 60 min at 37° C., then rinsed twice with 15 mmol/l EDTA (pH 8.0) in PBS and once with 0.1% Triton X-100 in PBS. Then, 2 ml of PBS containing 2.5 μg/ml of propidium iodide (Molecular Probes, Eugene, Oreg. USA) was added to the dishes for 5 min. Finally, islet cells were washed with 15 mmol/l EDTA (pH 8.0). Islet cells were then double-labelled for apoptotic nuclei, showing the BODIPY-FL-dUTP label in […] and total nuclei with propidium iodide in red.
Confocal microscopy. Staining probes were visualised through a confocal laser scanning microscopy system (MRC-1024 UV; BIO-RAD, UK) equipped with Argon ion and Krypton/Argon ion lasers. BODIPY-FL was excited at 503 nm, ethidium bromide at 510 nm, propidium iodide at 536 nm and Hoechst 33342 at 346 nm. The emissions were recorded respectively at 522/32 nm, 605/32 nm and 455/30 nm. Four to six optical sections were collected at every 15 μm through the islet. The number of BODIPY-FL-positive or ethidium bromide-positive nuclei were reported and expressed as a percentage of the total number of nuclei.
Animals, diets, and fetal islet isolation procedures were conducted as described in Example 1.

For assay [1] the following is noted: SIN-1. The procedure:
Chemiluminescence measurements. Luminol (5-amino-2,3-dihydro-1-4-phtalazinedione) at 400 μmol/l (Sigma Chemical Co.), taurine (0.3 or 3 mmol/l), methionine (0.1 or 1 mmol/l) and β-alanine (0.3 or 3 mmol/l) stock solutions were prepared in PBS. Sydnonimine (SIN-1), also known as 3-morpholinosydnonimine, a source of peroxynitrite, was purchased from Sigma Chemical Co. SIN-1 was prepared as 100 μmol in 1 mol/l NaOH. A reaction was initiated by simultaneous injection of luminol and SIN-1 into wells containing PBS either alone or with supplemental amino acid levels as noted above. Chemiluminescence emitted by luminol in the presence of peroxynitrite was measured every 30 seconds over 20 minutes in a chemifluorophotometer (MicroLumat LB96P, EG&G BERTHOLD), and was quantified as light intensity (10^8 RLU).
Nitric oxide is a reactive free radical which leads to peroxynitrite formation, another reactive free radical, by interaction with superoxide (NO+OO^−→ONOO^−). […] Luminol-derived chemiluminescence induced by peroxynitrite produced by the decomposition of sydnonimine (SIN-1) was evaluated to investigate the possibility that taurine quenched the peroxynitrite formed from NO.

The test system of another assay is fetal islet cells. Kind of assay: IL1β-induced apoptosis in cultured fetal islets (TUNEL). The format is cell-based, Wistar rats. As to conditions: 50 U/ml IL 1β for 24 hours; C and LP groups. The procedure:
The effect of in vitro taurine on the effect of IL1β-induced apoptosis was assessed. Fetal islets were isolated as described above in Example 1. On the 5th day of culture, islets were rinsed twice with serum free DME/F12 medium (1:1, v/v, Gibco, Paisley, Scotland) and were incubated in this medium supplemented with taurine at 0.3 or 3 mmol/l for 48 hours. For the final 24 hours of this incubation, IL1β (Endogen, Woburn, Mass.) was added to the incubation medium at a level of 50 U/ml. Apoptosis was quantified by confocal microscopy using TUNEL method, as outlined in Example 1.

Where two headings read alike, the source gives them in different places.

For the molecule `NCCC(=O)O` [β-alanine, 3-aminopropanoic acid, reference compound], the “rate of apoptosis / protection against damage induced by NO” value with fetal islet β cells (β-alanine 0.3 or 3 mmol/l) is “no protective effect”. In addition, in assay [1] (β-alanine 0.3 or 3 mmol/l), the “luminol chemiluminescence (peroxynitrite quenching)” value is on record as “no change”.
Take `CSCC[C@H](N)C(=O)O` [methionine, L-Methionine]: the apoptosis rate result in the assay on fetal islet β cells (0.1 mmol/l methionine, regardless of diet) is reported as “significantly decreased”; with fetal islet β cells (1.0 mmol/l methionine vs physiological concentration), “did not provide additional protection”. In assay [1] (methionine 0.1 or 1 mmol/l), the “luminol chemiluminescence (peroxynitrite quenching)” value was “No change”.
In the case of “IL 1β: macrophage-derived proinflammatory cytokine used to induce islet cell apoptosis”, the “apoptosis level of fetal islets” value in the assay with fetal islet cells is recorded as “increased the apoptosis level”.
Take `CC(=O)N(O)CCCCCNC(=O)CCC(=O)N(O)CCCCCNC(=O)CCC(=O)N(O)CCCCCN` [DFO, desferioxamine, reference compound]: the “reduction of the cell death induced by SNP” value in the assay on fetal islet β cells (LP and C islets, data not shown) is reported as “about 30%”.
